Experimental data taken from patent US7705016B2, “Regulation of food intake by modulation of long-chain fatty acyl-CoA levels in the hypothalamus” (Albert Einstein College of Medicine of Yeshiva University, priority 2003, dated 2010).
“And” between values parts separate entries of the source, which are not always exact repeats. Equal values may be shown once. “Also recorded” adds a separate entry of the source.

Legend:
[1] = tested on: male Sprague-Dawley (S-D) rats; experiment: ICV OA infusion with pancreatic-insulin clamp (insulin action studies); type: in vivo, rat; details: for effect on GP: over-fed rats (HF140)
From the text: Insulin action studies. The experimental protocol herein was designed to examine the effect of nutritional status on the ability of long-chain fatty acids in the hypothalamus to modulate carbohydrate metabolism. Rats (n=43) were implanted with chronic catheters as previously described (Liu et al., 1998). After full recovery from the catheterization, animals were randomized into three groups HF55 (n=16), HF80 (n=9), or HF140 (n=18) and were allowed to consume their allocated diet for three days. On the night prior to the in vivo study all rats received 55 kcal to ensure a similar nutritional state at the start of the metabolic studies. All studies were performed in awake, unstressed, chronically catheterized rats. At t=−120 (FIG. 7a), a primed-continuous infusion of ICV OA (total dose 30- or 300-nmol) or Vehicle (HBP 10% in aCSF) was initiated and maintained throughout the duration of the study. Plasma glucose was measured periodically initiating at the onset (t=−120) of the ICV infusion and lasting throughout the duration of the study. Plasma samples for determination of insulin, leptin, and non-esterified fatty acid concentration were obtained at the onset (t=−120) and at 30 min intervals during the study. At t=0, and a primed-continuous infusion of HPLC-purified [3-3H]-glucose (New England Nuclear, Boston, Mass.; 40 μCi bolus, 0.4 μCi/min for duration of the study) was initiated and maintained for the last four hours of the study. Samples for determination of ^3H-glucose specific activity were obtained at 10-minute intervals throughout infusions. Finally, at t=120, a pancreatic-insulin clamp study was initiated and maintained for two hours. During this procedure, a primed-continuous infusion of regular insulin (1 mU/kg/min) was administered, and a variable infusion of 25% glucose solution was started at t=120 and periodically adjusted to clamp the plasma glucose concentration at ˜7 mM. The rate of insulin infusion was designed to replace the plasma insulin concentration at ˜the average basal levels in post-absorptive rats. In order to control for possible effects of the ICV injections on endocrine pancreas, somatostatin (3 μg/kg/min) was coinfused with insulin to inhibit endogenous insulin secretion. At the end of the in vivo studies, rats were anesthetized (pentobarbital 55 mg/kg body weight, intravenously) and tissue samples were freeze-clamped in situ with aluminum tongs pre-cooled in liquid nitrogen. All tissue samples were stored at −80° C. for subsequent analysis.
Analytical Procedures and Calculations. Plasma glucose was measured by the glucose oxidase method (Glucose Analyzer II, Beckman Instruments, Inc. Fullerton, Calif., USA). Plasma insulin and leptin levels were determined by RIA (rat Leptin RIA kit, Linco Research Inc., St. Charles, Mo.). Serum adiponectin was measured by RIA (Linco Research, Inc., St. Charles, Mo.). Plasma non-esterified fatty acid concentrations were determined an enzymatic method by an automated kit according to the manufacturer's specifications (Waco Pure Chemical Industries. Osaka, Japan). The radioactivity of [3-^3H]glucose in plasma was measured from supernatants of Ba (OH)2 and from ZnSO4 precipitates (Somogyi procedure), after each was evaporated to dryness for the removal of tritiated water. […]

[2] = tested on: hepatic glucose fluxes; experiment: Hepatic glucose fluxes (flux through Glc-6-Pase, glucose cycling, direct pathway) after ICV OA; type: in vivo, rat
Method: Analytical Procedures and Calculations. Plasma glucose was measured by the glucose oxidase method (Glucose Analyzer II, Beckman Instruments, Inc. Fullerton, Calif., USA). Plasma insulin and leptin levels were determined by RIA (rat Leptin RIA kit, Linco Research Inc., St. Charles, Mo.). Serum adiponectin was measured by RIA (Linco Research, Inc., St. Charles, Mo.). Plasma non-esterified fatty acid concentrations were determined an enzymatic method by an automated kit according to the manufacturer's specifications (Waco Pure Chemical Industries. Osaka, Japan). The radioactivity of [3-^3H]glucose in plasma was measured from supernatants of Ba (OH)2 and from ZnSO4 precipitates (Somogyi procedure), after each was evaporated to dryness for the removal of tritiated water. Hepatic uridine diphosphoglucose (UDP-glucose) concentrations and specific activities were obtained by two sequential chromatographic separations, as previously described (Giaccari and Rossetti, 1989; 1992; Rossetti et al., 1993; 1996). Calculations were performed as described (Barzilai et al., 1997).
ICV OA markedly decreases the in vivo flux through Glc-6-Pase. GP represents the net contribution of glucosyl units derived from gluconeogenesis and glycogenolysis. However, a portion of glucose entering the liver via phophorylation by glucokinase is also a substrate for de-phosphorylation via Glc-6-Pase. This futile cycle between glucokinase and Glc-6-Pase is commonly named glucose cycling and accounts for the difference between the total glucose output (flux through Glc-6-Pase) and GP (FIG. 9a).
In order to further delineate the mechanisms responsible for the effect of ICV OA infusion on hepatic glucose production we estimated the in vivo flux through Glc-6-Pase and the relative contribution of glucose cycling to glucose output (Table 3; FIG. 9b,c). FIG. 9b,c depict the effect of ICV OA and ICV vehicle on the rates of hepatic glucose fluxes during the pancreatic-insulin clamp procedure. […]

[3] = caloric restricted rats (55 kcal/d)

SMILES: CCCCCCCC/C=C\CCCCCCCC(=O)O [OA, oleic acid]
- inhibition of GP, decrease from basal ([1]; HF55, ICV OA 30 nmol): 71%
- GIR required to maintain euglycemia ([1]; HF80, ICV OA 30 nmol): 4.64 mg/kg/min and ~9 mg/kg/min
- effect on GP ([1]; ICV OA 30 nmol): failed to significantly alter GP
- effect on GP ([1]; ICV OA 300 nmol): failed to significantly decrease GP; also recorded: failed to significantly alter GP
- rate of glucose disappearance (Rd) ([1]; pancreatic-insulin clamp, any of the experimental groups): did not significantly modify; also recorded: not significantly affected
- glucose cycling [2, 3]: modestly and similarly decreased
- total glucose output (in vivo flux through glucose-6-phosphatase) [2, 3]: markedly suppressed
- glucose cycling ([2]; over-fed rats (140 kcal/d)): modestly and similarly decreased
